Reference: patent US9096640B2, “17-hydroxy-17-pentafluoroethyl-estra-4,9(10)-diene-11-methylene oxyalkylene aryl derivatives, process for preparation thereof, and use thereof for treatment of diseases” (Bayer Intellectual Property, priority 2009, dated 2015)
pIC50: −log10 of the molar value.

Assays:
[1] = target: T1, human progesterone receptor A (Homo sapiens, UniProt P06401); test: Progesterone receptor transactivation test in stably transfected SK-N-MC cells (PR-A, MMTV-LUC reporter); type: cell-based; conditions: 24 hours, in presence of 0.1 nmol/l promegestone, luciferase reporter, read-out: PR-A IC50 (antagonistic potency)
T1 construct: expressed in transfected cells; host or cells: SK-N-MC human neuroblastoma cells, stably transfected with pRChPR-A-neo and pMMTV-LUC
T1 sequence (P06401 1-769 isoform P06401-2): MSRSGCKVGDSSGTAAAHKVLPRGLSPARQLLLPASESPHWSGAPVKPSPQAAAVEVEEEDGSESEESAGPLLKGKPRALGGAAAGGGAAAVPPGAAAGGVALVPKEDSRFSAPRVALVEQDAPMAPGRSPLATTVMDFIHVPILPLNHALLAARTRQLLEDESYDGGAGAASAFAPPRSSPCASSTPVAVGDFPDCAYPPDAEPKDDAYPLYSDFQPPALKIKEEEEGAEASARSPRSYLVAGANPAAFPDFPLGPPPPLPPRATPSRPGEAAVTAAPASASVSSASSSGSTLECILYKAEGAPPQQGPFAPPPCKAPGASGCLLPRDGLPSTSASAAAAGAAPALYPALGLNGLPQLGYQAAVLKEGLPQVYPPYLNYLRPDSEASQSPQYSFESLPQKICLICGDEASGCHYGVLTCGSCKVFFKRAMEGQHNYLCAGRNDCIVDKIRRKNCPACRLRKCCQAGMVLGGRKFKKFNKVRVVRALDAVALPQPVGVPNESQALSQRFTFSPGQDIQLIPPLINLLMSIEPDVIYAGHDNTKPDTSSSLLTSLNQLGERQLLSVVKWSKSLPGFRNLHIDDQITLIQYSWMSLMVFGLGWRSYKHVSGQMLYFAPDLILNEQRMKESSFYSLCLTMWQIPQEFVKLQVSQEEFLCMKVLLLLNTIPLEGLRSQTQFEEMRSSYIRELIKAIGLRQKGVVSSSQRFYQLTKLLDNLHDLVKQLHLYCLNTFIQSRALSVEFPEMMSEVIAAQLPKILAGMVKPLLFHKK
Description: (§1) Progesterone Receptor-Antagonistic Action in Stable Transfectants of Human Neuroblastoma Cells (SK-N-MC Cells) with the Human Progesterone A or Progesterone B Receptor and an MN-LUC Reporter Construct
(§2) SK-N-MC cells (human neuroblastoma cells) which have been stably transfected with plasmids expressing the human progesterone receptor B (pRChPR-B-neo) or the human progesterone receptor A (pRChPR-A-neo) and a reporter construct (pMMTV-LUC) were incubated for 24 hours either in the absence (negative control) or in the presence of ascending amounts of the particular test compound (0.01 nmol/l, 0.1 nmol/l, 1 nmol/l, 10 nmol/l, 100 nmol/l and […]), in order to determine the agonistic efficacy. As a positive control of the reporter gene induction, the cells were treated with the synthetic gestagen promegestone (0.01 nmol/l, 0.1 nmol/l, 1 nmol/l, 10 nmol/l, 100 nmol/l and […]). To determine the antagonistic activity, the cells were treated with 0.1 nmol/l promegestone and additionally with ascending amounts of the particular test compound (0.01 nmol/l, 0.1 nmol/l, 1 nmol/l, 10 nmol/l, 100 nmol/l and […]). The activity of the reporter gene LUC (LUC=luciferase) was determined in the cell lysates and measured as RLU (relative light units). All measurements are reported as % efficacy and as […] and […] concentrations.

[2] = target: T2, human progesterone receptor B (Homo sapiens, UniProt P06401); test: Progesterone receptor transactivation test in stably transfected SK-N-MC cells (PR-B, MMTV-LUC reporter); type: cell-based; conditions: 24 hours, in presence of 0.1 nmol/l promegestone, luciferase reporter, read-out: PR-B IC50 (antagonistic potency)
T2 construct: expressed in transfected cells; host or cells: SK-N-MC human neuroblastoma cells, stably transfected with pRChPR-B-neo and pMMTV-LUC
T2 sequence (P06401 1-933): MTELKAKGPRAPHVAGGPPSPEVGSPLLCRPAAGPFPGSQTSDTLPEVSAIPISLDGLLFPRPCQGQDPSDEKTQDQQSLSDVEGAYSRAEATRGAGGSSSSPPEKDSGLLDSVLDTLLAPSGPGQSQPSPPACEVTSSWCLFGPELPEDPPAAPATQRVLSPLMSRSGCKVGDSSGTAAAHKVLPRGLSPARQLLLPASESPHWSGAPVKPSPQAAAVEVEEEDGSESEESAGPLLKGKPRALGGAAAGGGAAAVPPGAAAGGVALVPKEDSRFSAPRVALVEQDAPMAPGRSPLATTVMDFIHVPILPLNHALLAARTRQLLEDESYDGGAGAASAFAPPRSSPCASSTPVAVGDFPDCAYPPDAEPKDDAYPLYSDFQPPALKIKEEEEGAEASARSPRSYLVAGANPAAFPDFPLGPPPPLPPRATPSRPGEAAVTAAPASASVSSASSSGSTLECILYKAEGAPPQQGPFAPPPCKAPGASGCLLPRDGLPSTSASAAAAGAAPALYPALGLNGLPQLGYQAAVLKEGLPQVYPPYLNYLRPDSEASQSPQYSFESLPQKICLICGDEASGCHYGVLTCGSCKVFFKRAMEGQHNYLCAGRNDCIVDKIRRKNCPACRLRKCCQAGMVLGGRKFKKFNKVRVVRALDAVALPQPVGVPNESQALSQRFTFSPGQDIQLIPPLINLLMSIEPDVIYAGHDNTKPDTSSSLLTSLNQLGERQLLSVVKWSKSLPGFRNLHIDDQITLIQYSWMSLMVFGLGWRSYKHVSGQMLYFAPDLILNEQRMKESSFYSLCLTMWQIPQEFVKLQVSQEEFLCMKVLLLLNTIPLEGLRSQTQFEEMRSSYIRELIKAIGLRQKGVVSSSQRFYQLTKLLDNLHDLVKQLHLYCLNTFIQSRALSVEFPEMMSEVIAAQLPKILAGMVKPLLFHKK
Description: as §1, §2

SMILES	pIC50 [1]	pIC50 [2]
C[C@]12C[C@H](c3ccc(CCOCCO)cc3)C3=C4CCC(=O)C=C4CC[C@H]3[C@@H]1CC[C@@]2(O)C(F)(F)C(F)(F)F [Example 7, (8S,11R,13S,14S,17S)-17-hydroxy-11-{4-[2-(2-hydroxyethoxy)ethyl]phenyl}-13-methyl-17-pentafluoroethyl-1,2,6,7,8,11,12,13,14,15,16,17-dodecahydro-cyclopenta[a]phenanthren-3-one]	10.00	10.00
C[C@]12C[C@H](c3ccc(CCOCC(=O)O)cc3)C3=C4CCC(=O)C=C4CC[C@H]3[C@@H]1CC[C@@]2(O)C(F)(F)C(F)(F)F [Example 6, {2-[4-((8S,11R,13S,14S,17S)-17-hydroxy-13-methyl-3-oxo-17-pentafluoroethyl-2,3,6,7,8,11,12,13,14,15,16,17-dodecahydro-1H-cyclopenta[a]phenanthren-11-yl)-phenyl]ethoxy}acetic acid]	8.52	7.92
CC(OCCO)c1ccc(C2C[C@@]3(C)C(CC[C@@]3(O)C(F)(F)C(F)(F)F)C3CCC4=CC(=O)CCC4=C23)cc1 (mixture of isomers) [Example 1A, (8S,11R,13S,14S,17S)-17-hydroxy-11-{4-[(1RS)-1-(2-hydroxyethoxy)ethyl]phenyl}-13-methyl-17-pentafluoroethyl-1,2,6,7,8,11,12,13,14,15,16,17-dodecahydro-cyclopenta[a]phenanthren-3-one]	9.92	9.44
CC(OCC#N)c1ccc([C@H]2C[C@@]3(C)C(CC[C@@]3(O)C(F)(F)C(F)(F)F)C3CCC4=CC(=O)CCC4=C32)cc1 (mixture of isomers) [Example 5, {(RS)-1-[4-((8S,11R,13S,14S,17S)-17-hydroxy-13-methyl-3-oxo-17-pentafluoroethyl-2,3,6,7,8,11,12,13,14,15,16,17-dodecahydro-1H-cyclopenta[a]phenanthren-11-yl)phenyl]ethoxy}acetonitrile]	10.00	10.00
CC(C)(C)OC(=O)COCCc1ccc([C@H]2C[C@@]3(C)[C@@H](CC[C@@]3(O)C(F)(F)C(F)(F)F)[C@@H]3CCC4=CC(=O)CCC4=C32)cc1 [Example 4, {2-[4-((8S,11R,13S,14S,17S)-17-hydroxy-13-methyl-3-oxo-17-pentafluoroethyl-2,3,6,7,8,11,12,13,14,15,16,17-dodecahydro-1H-cyclopenta[a]phenanthren-11-yl)-phenyl]ethoxy}acetic acid tert-butyl ester]	10.00	10.00
CC(OCC(=O)OC(C)(C)C)c1ccc([C@H]2C[C@@]3(C)C(CC[C@@]3(O)C(F)(F)C(F)(F)F)C3CCC4=CC(=O)CCC4=C32)cc1 (mixture of isomers) [Example 2, {(1RS)-1-[4-((8S,11R,13S,14S,17S)-17-hydroxy-13-methyl-3-oxo-17-pentafluoroethyl-2,3,6,7,8,11,12,13,14,15,16,17-dodecahydro-1H-cyclopenta[a]phenanthren-11-yl)phenyl]ethoxy}acetic acid tert-butyl ester]	10.00	9.92
CC(OCC(=O)O)c1ccc([C@H]2C[C@@]3(C)C(CC[C@@]3(O)C(F)(F)C(F)(F)F)C3CCC4=CC(=O)CCC4=C32)cc1 (mixture of isomers) [Example 3, {(RS)-1-[4-((8S,11R,13S,14S,17S)-17-hydroxy-13-methyl-3-oxo-17-pentafluoroethyl-2,3,6,7,8,11,12,13,14,15,16,17-dodecahydro-1H-cyclopenta[a]phenanthren-11-yl)phenyl]ethoxy}acetic acid]	7.89	8.01
COC(C)c1ccc(C2C[C@@]3(C)C(CC[C@@]3(O)C(F)(F)C(F)(F)F)C3CCC4=CC(=O)CCC4=C23)cc1 (mixture of isomers) [Example 1B, (8S,11R,13S,14S,17S)-17-hydroxy-11-[4-((1RS)-1-methoxyethyl)phenyl]-13-methyl-17-pentafluoroethyl-1,2,6,7,8,11,12,13,14,15,16,17-dodecahydrocyclopenta[a]phenanthren-3-one]	10.00	10.00
Cc1nc2cc(COC(C)c3ccc(C4C[C@@]5(C)C(CC[C@@]5(O)C(F)(F)C(F)(F)F)C5CCC6=CC(=O)CCC6=C45)cc3)ccc2s1 (mixture of isomers) [Example 8, (8S,11R,13S,14S,17S)-17-hydroxy-13-methyl-11-{4-[(RS)-1-(2-methylbenzothiazol-5-ylmethoxy)ethyl]phenyl}-17-pentafluoroethyl-1,2,6,7,8,11,12,13,14,15,16,17-dodecahydro-cyclopenta[a]phenanthren-3-one]	10.22	10.00
